Assay results reported in patent US20070128217A1 (priority 2003, published 2007).

B1: SC03-015 (scFv)
scFv: AMAEVQLVESGGGVVRPGGSLRLSCAASGFTFDDYGMSWVRQAPGKGLEWVSGINWNGGSTGYADSVKGRFTISRDNAKNSLYLQMNSLRAEDTAVYYCARGLSLRPWGQGTLVTVSRGGGGSGGGGSGGGGSSELTQDPAVSVALGQTVRITCQGDSLRSYYASWYQQKPGQAPVLVIYGKNNRPSGIPDRFSGSSSGNTASLTITGAQAEDEADYYCNSRDSSGNHVVFGGGTKLTVLGAAA
B2: SC03-006 (scFv)
scFv: SMAEVQLVESGGGLVQPGGSLRLSCAASGFTFSGYPMHWVRQAPGKGLEWVAVISYDGSNKYYADSVKGRFTISRDNSKNTLYLQMNSLRAEDTAVYYCAKDGSPRTPSFDYWGQGTLVTVLEGTGGSGGTGSGTGTSELDIQMTQSPHSLSASVGDRVTITCRASQGISNYLAWYQQKPGKVPKLLIYAASTLQSGVPSRFSGSGSGTDFTLTISSLQPEDVGVYYCQQRFRTPVTFGQGTKLEIKRAAA

Experiments:
[1] = tested on: rabbit serum obtained by immunizing a rabbit with the SARS-CoV strain Frankfurt 1; assay type: binding; parameters: Binding of a rabbit serum to linear peptides / Binding of a rabbit serum to looped peptides / Rabbit serum linear peptides / Rabbit serum looped peptides / Binding of a rabbit serum to linear peptides of protein N of SARS-CoV Urbani (Rabbit serum linear peptides) / Binding of a rabbit serum to looped/cyclic peptides of protein N of SARS-CoV Urbani (Rabbit serum looped peptides): unit not given here
[2] = tested on: recombinant human anti-SARS-CoV antibody 03-018; assay type: binding; parameters: Binding of antibody 03-018 to linear peptides of the N protein of SARS-CoV Urbani / Binding of antibody 03-018 to looped/cyclic peptides of the N protein of SARS-CoV Urbani: unit not given here
[3] = tested on: antibodies in sera from SARS patients (sera 1a, 1b, 2, 6, 37, 62, London, SARS-yellow, SARS-green); assay type: binding, human; parameters: Binding of serum 6 to linear peptides of protein X1 of SARS-CoV Urbani / Binding of serum 37 to linear peptides of protein X1 of SARS-CoV Urbani / Binding of serum 6 to looped/cyclic peptide (PEPSCAN-ELISA) / Binding of serum 37 to looped/cyclic peptide (PEPSCAN-ELISA) / Binding of serum 37 to looped/cyclic peptides of protein X1 of SARS-CoV Urbani / Binding of serum 6 to linear peptides of protein X2 / Binding of serum 37 to linear peptides of protein X2 / Binding of serum 37 to looped/cyclic peptides of protein X2 of SARS-CoV Urbani / Binding of serum 6 to linear peptides of protein M of SARS-CoV Urbani / Binding of serum 37 to linear peptides of protein M of SARS-CoV Urbani / Binding of serum 6 to looped/cyclic peptides of protein M of SARS-CoV Urbani / Binding of serum 37 to looped/cyclic peptides of protein M of SARS-CoV Urbani / Binding of serum 6 to linear peptides of protein X3 of SARS-CoV Urbani / Binding of serum 37 to linear peptides of protein X3 of SARS-CoV Urbani / Binding of serum 37 to looped/cyclic peptides of protein X3 of SARS-CoV Urbani / Binding of serum 6 to linear peptides of protein X4 of SARS-CoV Urbani / Binding of serum 37 to linear peptides of protein X4 of SARS-CoV Urbani / Binding of serum 37 to looped/cyclic peptides of protein X4 of SARS-CoV Urbani / Binding of serum 6 to linear peptides of protein X5 of SARS-CoV Urbani / Binding of serum 37 to linear peptides of protein X5 of SARS-CoV Urbani / Binding of serum 37 to looped/cyclic peptides of protein X5 of SARS-CoV Urbani / Binding of serum 6 to linear peptides of protein N of SARS-CoV Urbani / Binding of serum 37 to linear peptides of protein N of SARS-CoV Urbani / Binding of serum 6 to linear peptide (PEPSCAN-ELISA) / Binding of serum 1a to looped/cyclic peptides of protein N of SARS-CoV Urbani / Binding of serum 1b to looped/cyclic peptides of protein N of SARS-CoV Urbani / Binding of serum 2 to looped/cyclic peptides of protein N of SARS-CoV Urbani / Binding of serum 6 to looped/cyclic peptides of protein N of SARS-CoV Urbani / Binding of serum 37 to looped/cyclic peptides of protein N of SARS-CoV Urbani / Binding of serum 62 to looped/cyclic peptides of protein N of SARS-CoV Urbani / Binding of serum London to looped/cyclic peptides of protein N of SARS-CoV Urbani / Binding of serum SARS-green to looped/cyclic peptides of protein N of SARS-CoV Urbani: unit not given here
[4] = tested on: control sera (pooled serum of ten healthy LUMC hospital workers; commercial negative donor pooled serum from the Dutch bloodbank); assay type: binding, human; parameters: Binding of Control serum LUMC to linear peptides / Binding of Control serum Blood-bank to linear peptides / Binding of Control serum LUMC to looped peptides / Binding of Control Serum Blood-Bank to Looped peptides / Binding of Control serum LUMC to linear peptides of the protein M of SARS-CoV Urbani / Binding of Control serum Blood-bank to linear peptides of the protein M of SARS-CoV Urbani / Binding of Control serum LUMC to looped peptides of the protein M of SARS-CoV Urbani / Binding of Control Serum Blood-Bank to Looped peptides of the protein M of SARS-CoV Urbani: unit not given here
[5] = biological target: SARS-CoV preparation (Frankfurt 1 strain) (SARS-CoV strain Frankfurt 1)

Molecule	Binding of a rabbit serum to linear peptides of protein N of SARS-CoV Urbani (Rabbit serum linear peptides) [1]	Binding of a rabbit serum to looped/cyclic peptides of protein N of SARS-CoV Urbani (Rabbit serum looped peptides) [1]	Binding of antibody 03-018 to linear peptides of the N protein of SARS-CoV Urbani [2]	Binding of antibody 03-018 to looped/cyclic peptides of the N protein of SARS-CoV Urbani [2]	Binding of serum 1a to linear peptides of protein N of SARS-CoV Urbani [3]	Binding of serum 1a to looped/cyclic peptides of protein N of SARS-CoV Urbani [3]	Binding of serum 1b to linear peptides of protein N of SARS-CoV Urbani [3]	Binding of serum 1b to looped/cyclic peptides of protein N of SARS-CoV Urbani [3]	Binding of serum 2 to linear peptides of protein N of SARS-CoV Urbani [3]	Binding of serum 2 to looped/cyclic peptides of protein N of SARS-CoV Urbani [3]	Binding of serum 6 to linear peptides of protein N of SARS-CoV Urbani [3]	Binding of serum 6 to looped/cyclic peptides of protein N of SARS-CoV Urbani [3]	Binding of serum 37 to linear peptides of protein N of SARS-CoV Urbani [3]	Binding of serum 37 to looped/cyclic peptides of protein N of SARS-CoV Urbani [3]	Binding of serum 62 to linear peptides of protein N of SARS-CoV Urbani [3]	Binding of serum 62 to looped/cyclic peptides of protein N of SARS-CoV Urbani [3]	Binding of serum London to linear peptides of protein N of SARS-CoV Urbani [3]	Binding of serum London to looped/cyclic peptides of protein N of SARS-CoV Urbani [3]	Binding of serum SARS-green to looped/cyclic peptides of protein N of SARS-CoV Urbani [3]	Binding of serum SARS-yellow to looped/cyclic peptides of protein N of SARS-CoV Urbani [3]	also measured
YKHWPQIAQFAPSAS	0.1	0.5	0.1	0.2	0.3	0.5	0.1	0.3	0.2	0.5	0.2	0.3	0.8	0.7	0.7	0.7	0.6	0.5	0.4	0.6	Binding of serum SARS-green to linear peptides of protein N of SARS-CoV Urbani [3]: 0.4; Binding of serum SARS-yellow to linear peptides of protein N of SARS-CoV Urbani [3]: 0.7; Control Serum Blood-Bank Looped peptides [4]: 0.8; Control serum Blood-bank linear peptides [4]: 0.9; Control serum LUMC linear peptides [4]: 0.7; Control serum LUMC looped peptides [4]: 0.8
YNVTQAFGRRGPEQT	–	–	0.1	0.2	–	0.3	–	0.2	–	0.3	–	0.1	–	0.5	–	0.3	–	0.3	0.2	0.3	Recognition of the peptide by the rabbit serum [1]: recognized; Binding of serum 1a to linear peptide (PEPSCAN-ELISA) [3]: 0.3; Binding of serum 1b to linear peptide (PEPSCAN-ELISA) [3]: 0.1; Binding of serum 2 to linear peptide (PEPSCAN-ELISA) [3]: 0.2; Binding of serum 6 to linear peptide (PEPSCAN-ELISA) [3]: 0.2; Binding of serum 37 to linear peptide (PEPSCAN-ELISA) [3]: 0.7; Binding of serum 62 to linear peptide (PEPSCAN-ELISA) [3]: 0.7; Binding of serum London to linear peptide (PEPSCAN-ELISA) [3]: 0.5; Binding of serum SARS-green to linear peptide (PEPSCAN-ELISA) [3]: 0.6; Binding of serum SARS-yellow to linear peptide (PEPSCAN-ELISA) [3]: 0.6; Binding of Control Serum Blood-Bank to Looped peptides [4]: 0.5; Binding of Control serum Blood-bank to linear peptides [4]: 0.7; Binding of Control serum LUMC to linear peptides [4]: 0.6; Binding of Control serum LUMC to looped peptides [4]: 0.5
YRRATRRVRGGDGKM	0.2	0.0	0.1	0.2	0.3	0.2	0.1	0.1	0.3	0.2	0.3	0.1	0.8	0.4	0.7	0.3	0.5	0.3	0.2	0.1	Binding of serum SARS-green to linear peptides of protein N of SARS-CoV Urbani [3]: 0.4; Binding of serum SARS-yellow to linear peptides of protein N of SARS-CoV Urbani [3]: 0.6; Binding of Control Serum Blood-Bank to Looped peptides [4]: 0.4; Binding of Control serum Blood-bank to linear peptides [4]: 0.8; Binding of Control serum LUMC to linear peptides [4]: 0.7; Binding of Control serum LUMC to looped peptides [4]: 0.3
B1	–	–	–	–	–	–	–	–	–	–	–	–	–	–	–	–	–	–	–	–	OD492nm [5]: 0.796 OD492nm
B2	–	–	–	–	–	–	–	–	–	–	–	–	–	–	–	–	–	–	–	–	OD492nm [5]: 1.06 OD492nm
